Laboratory results as given in patent US20230374148A1, “BINDING MOLECULES THAT MULTIMERISE CD45” (UCB BIOPHARMA SRL, priority 2020, published 2023).

Assays:
Format in all cases: cell-based, human
M2 macrophages [1] = assay: Caspase-3/7 induction, IncuCyte, M2; details: over 6 days, BYbe 250-2 nM, Camptothecin, Staurosporine 5 μM
Description: (§1) Human PBMC derived from blood leukocyte platelet-apheresis cones (NHSBT Oxford) were banked as frozen aliquots. Prior to an assay being performed, 2 vials of frozen cells, each containing 5×10^7 cells in 1 ml, were thawed in a 37° C. water bath and then added to 50 ml complete media (RPMI 1640+2 mM GlutaMAX+1% Pen/Strep, all previous supplied by Invitrogen, +10% Fetal Bovine Serum (FBS), Sigma Aldrich). Cells were spun (500 g, 5 min, at RT) and re-suspended in 30 ml complete media to wash and spun again. Cells were resuspended in 20 ml MACS buffer (PBS, pH 7.2, 0.5% bovine serum albumin (BSA), and 2 mM EDTA, Sigma Aldrich) and counted on a ChemoMetec NucleoCounter NC-3000 to determine concentration and viability. PBMCs from one donor (UCB-Cones 802) was used in this assay. Monocyte isolation was performed using the Pan Monocyte Isolation Kit (Miltenyi Biotec, cat no. 130-096-537) and LS columns (Miltenyi Biotec, cat no 130-042-401) according to manufacturer's instructions. 100 μl of cells were removed and stored on ice to check monocyte purity post isolation. Isolated cells were stained with BV421 mouse anti-human CD14 (BD Biosciences, cat no. 563743) to check for purity of monocytes using FACS. M-CSF (Sigma Aldrich, cat no. SRP3110) and GM-CSF (R&D Systems, cat no. 215-GM/CF) were prepared at 100 μg/ml. Cells were prepared in M1 media (complete media+50 ng/ml GM-CSF) or M2 media (complete media+50 ng/ml M-CSF) at a concentration of 2.5×10^5 cells/ml. 200 μl cells were plated into two Corning 96 well Black polystyrene microplates (Sigma Aldrich) and incubated at 37° C., 5% CO2. Following a 3-day incubation at 37° C., 5% CO2, the plate was spun (500 g, 5 min, RT), buffer was aspirated, the cells were washed once with PBS and then resuspended in 200 μL of M1 media or M2 media. […] The caspase dye was measured with the green laser (350 ms) and the cytotox dye was measured with a red laser (650 ms). The green dye signal was analysed using Incucyte® Zoom2016B. […]

M1 macrophages [2] = assay: Caspase-3/7 induction, IncuCyte, M1; details: over 6 days, BYbe 250-2 nM, Camptothecin, Staurosporine 5 μM
Description: as §1

M1 macrophages [3] = assay: Macrophage viability, CellTiter-Glo, M1; details: 24 hr, BYbe 250-2 nM, Camptothecin, Staurosporine 5 μM
Description: (§2) Human PBMC derived from blood leukocyte platelet-apheresis cones (NHSBT Oxford) were banked as frozen aliquots. Prior to an assay being performed, 2 vials of frozen cells, each containing 5×10^7 cells in 1 ml, were thawed in a 37° C. water bath and then added to 50 ml complete media (RPMI 1640+2 mM GlutaMAX+1% Pen/Strep, all previous supplied by Invitrogen, +10% Fetal Bovine Serum (FBS), Sigma Aldrich). Cells were spun (500 g, 5 min, at RT) and re-suspended in 30 ml complete media to wash and spun again. Cells were resuspended in 20 ml MACS buffer (PBS, pH 7.2, 0.5% bovine serum albumin (BSA), and 2 mM EDTA, Sigma Aldrich) and counted on a ChemoMetec NucleoCounter NC-3000 to determine concentration and viability. PBMCs from one donor (UCB-Cones 802) was used in this assay.
(§3) Monocyte isolation was performed using the Pan Monocyte Isolation Kit (Miltenyi Biotec, cat no. 130-096-537) and LS columns (Miltenyi Biotec, cat no 130-042-401) according to manufacturer's instructions. 100 μl of cells were removed and stored on ice to check monocyte purity post isolation. […]
(§4) One microplate was incubated for a further 24 hours in 37° C. incubator with 5% CO2 before being used to assess cell viability with CellTiter-Glo®. […] The plate was then read on the BMG Labtech PHERAstar FSX microplate reader using the CellTiter-Glo program.

M2 macrophages [4] = assay: Macrophage viability, CellTiter-Glo, M2; details: 24 hr, BYbe 250-2 nM, Camptothecin, Staurosporine 5 μM
Description: as §2, §3, §4

Compound	levels of Caspase-3/7 (M2 macrophages [1])	levels of Caspase-3/7 (M1 macrophages [2])	cell viability (CellTiter-Glo) (M1 macrophages [3])	cell viability (CellTiter-Glo) (M2 macrophages [4])
CN[C@@H]1C[C@H]2O[C@@](C)([C@@H]1OC)n1c3ccccc3c3c4c(c5c6ccccc6n2c5c31)C(=O)NC4 [Staurosporine]	very low	very low	little or no viable cells detected	little or no viable cells detected
CC[C@@]1(O)C(=O)OCc2c1cc1n(c2=O)Cc2cc3ccccc3nc2-1 [Camptothecin]	significant levels	significant levels	reduced the viability	reduced the viability
